Measurements as given in patent publication US8722654B2, “Lipoxin analogs as novel inhibitors of angiogenesis” (The Brigham and Women's Hospital, Inc., priority 2001, dated 2014).

What was measured:
Format in all cases: in vivo, BALB/c mice
TNF-α = TNF-α mRNA in inflamed corneas, real-time PCR
Experimental: (§1) The standard model for induction of inflammatory corneal NV is associated with development of intrastromal vessels in close association with a mixed-cell (primarily neutrophilic) infiltrate. (43,44) Three interrupted sutures (11-0 nylon, Sharpoint; Vanguard, Houston, Tex.) were placed intrastromally with two stromal incursions extending over 120° of the corneal circumference each to induce inflammatory corneal NV, which is also associated with significant LA, as described previously. (43) The corneas were followed by slit-lamp biomicroscopy for corneal NV development. […]
(§2) BALB/c mice were randomized to receive ATLa, or vehicle (normal saline) by subconjunctival injection in a masked fashion after suture or hydron pellet placement. […] (49) The physical properties were monitored routinely via LC/MS/MS matching the reported biological and physical properties prior to analysis in present experiments. […]
(§3) 1 μl of total cDNA, synthesized from 400 ng total RNA with random hexamers using Superscript™ III Reverse Transcriptase (Invitrogen, Carlsbad, Calif.), was loaded in each well and assays were performed in triplicates. […] The results were analyzed by comparative threshold cycle (CT) method. The relative expression level of each sample was expressed as fold change from normal control.

IL-1α = IL-1α mRNA in inflamed corneas, real-time PCR; details: 24 h and 72 h
Experimental: as §1, §2, §3

inflamed corneas = assay: Neutrophil and macrophage infiltration in suture-inflamed corneas
Experimental: (§4) Six to eight-week-old male BALB/c (Taconic Farms, Germantown, N.Y.) mice were used in all experiments. All experimental protocols were approved by the Schepens Eye Research Institute Animal Care and Use Committee, and all animals were treated according to the Association for Research in Vision and Ophthalmology Statement for the Use of Animals in Ophthalmic and Vision Research.
The standard model for induction of inflammatory corneal NV is associated with development of intrastromal vessels in close association with a mixed-cell (primarily neutrophilic) infiltrate. (43,44) Three interrupted sutures (11-0 nylon, Sharpoint; Vanguard, Houston, Tex.) were placed intrastromally with two stromal incursions extending over 120° of the corneal circumference each to induce inflammatory corneal NV, which is also associated with significant LA, as described previously. (43) The corneas were followed by slit-lamp biomicroscopy for corneal NV development. NV was graded between 0 and 3, with increments of 0.5, using a grid system per each corneal quadrant based on the centripetal extent of the neovascular branches from the limbus. Scores for each quadrant then summed to derive the NV index (range 0 to 12) for each eye, as previously described. (43)
BALB/c mice were randomized to receive ATLa, or vehicle (normal saline) by subconjunctival injection in a masked fashion after suture or hydron pellet placement. The compounds were administered at a dose of 100 ng/10 μl per mouse every 48 h after suture or pellet placed. ATLa was synthesized as described previously. (49) The physical properties were monitored routinely via LC/MS/MS matching the reported biological and physical properties prior to analysis in present experiments.
Full thickness corneal tissue or 8 μm-frozen sections were fixed in acetone for 15 minutes at room temperature. To block non-specific staining, anti-FcR mAb ([…], FcγIII/II receptor) or 10% goat serum was used before primary antibodies or isotype-matched control antibodies were applied at 4° C. overnight. Thereafter, samples were incubated with secondary antibodies at RT. Each step was followed by three thorough washings in PBS for 5-10 minutes. Finally, the samples were covered with mounting medium (Vector Laboratories, Burlingame, Calif.) and analyzed by epifluorescence microscopy (Eclipse E800; Nikon, Tokyo, Japan). The following antibodies were used: FITC-conjugated rat anti-mouse CD31 (Santa Cruz Biotechnology, Santa Cruz, Calif.), purified rat anti-mouse neutrophil (NIMP-R14, Abcam, Cambridge, Mass.), purified rat anti-mouse F4/80 (Novus Biologicals, Littleton, Colo.) and purified rabbit anti-mouse LYVE-1 (Abcam, Cambridge, Mass.). The secondary antibodies were Rodamine-conjugated donkey anti-rabbit IgG and Rodamine-conjugated goat anti-rat IgG (Santa Cruz Biotechnology, Santa Cruz, Calif.). Isotype controls included FITC-conjugated rat IgG2a, purified rat IgG2b, and purified rabbit IgG (Santa Cruz Biotechnology, Santa Cruz, Calif.).

[1] = tested on: VEGF-A-induced corneal HA and LA; assay: Corneal micropocket assay, VEGF-A pellet; details: VEGF-A micropellet
Experimental: (§5) The corneal micropocket assay in mice and quantification of the resultant NV has been described previously. (45,46) In brief, 0.3 μl of hydron pellets (IFN Sciences, New Brunswick, N.J.) containing 30 ng of murine IL-1β (R&D Systems, Minneapolis, Minn.) or 200 ng of VEGF-A (gift from BRB Preclinical Repository, National Cancer Institute) were prepared and implanted into the corneal stroma of male BALB/c mice. After 7 days the animals were sacrificed and the corneas were harvested for quantitative analysis of HA and LA.
(§6) BALB/c mice were randomized to receive ATLa, or vehicle (normal saline) by subconjunctival injection in a masked fashion after suture or hydron pellet placement. […] (49) The physical properties were monitored routinely via LC/MS/MS matching the reported biological and physical properties prior to analysis in present experiments.
(§7) Full thickness corneal tissue or 8 μm-frozen sections were fixed in acetone for 15 minutes at room temperature. […] Finally, the samples were covered with mounting medium (Vector Laboratories, Burlingame, Calif.) and analyzed by epifluorescence microscopy (Eclipse E800; Nikon, Tokyo, Japan). […]
(§8) To quantify corneal angiogenesis, digital pictures of corneal flat-mounts were taken using an image analysis system (Spot Image Analysis, Diagnostic Instruments, Sterling Heights, Mich.). […]

IL-1β = IL-1β mRNA in inflamed corneas, real-time PCR; details: vs vehicle-treated controls
Experimental: as §1, §2, §3

VEGF-D = VEGF-D mRNA in inflamed corneas, real-time PCR; details: vs vehicle-treated controls
Experimental: as §1, §2, §3

VEGFR-3 = VEGFR-3 mRNA in inflamed corneas, real-time PCR; details: vs vehicle-treated controls
Experimental: as §1, §2, §3

VEGF-C = VEGF-C mRNA in inflamed corneas, real-time PCR; details: 24 h and 72 h after suture placement
Experimental: as §1, §2, §3

mouse IL-1 beta = assay: IL-1β protein in inflamed corneas, ELISA
Experimental: FIG. 13, ATLa Regulates IL-1β. Mice were treated at 0 h and 48 h after suture-placement with ATLa or vehicle. Whole corneas were excised at 72 h, and subsequently freeze-thawed 3 times. Cornea was then homogenized using a pellet pestile motor with additional protease inhibitors. Homogenates were centrifuged at 12,000 rpm for 5 minutes and the supernatant was assayed for mouse IL-1 beta via ELISA (eBioscience, USA) according to the manufacturer's instructions.
as §1, §6

VEGFR-2 = VEGFR-2 mRNA in inflamed corneas, real-time PCR; details: 24 h and 72 h after suture placement
Experimental: as §1, §2, §3

[2] = tested on: suture-induced corneal NV; assay: Suture-induced inflammatory corneal angiogenesis (HA and LA)
Experimental: as §4, §1, §6, §7
To quantify corneal angiogenesis, digital pictures of corneal flat-mounts were taken using an image analysis system (Spot Image Analysis, Diagnostic Instruments, Sterling Heights, Mich.). The areas covered by CD31^high/LYVE-1^−-vessels (blood vessels) or CD31^lowLYVE-1^high vessels (lymphatics) were measured morphometrically using NIH Image J software (version 1.34s; http://rsb.info.nih.gov/ij). […] The vessel density was calculated by the proportion of neovascularized area to the whole corneal area.

VEGF-A = VEGF-A mRNA in inflamed corneas, real-time PCR; details: 24 h and 72 h after suture placement
Experimental: as §1, §2, §3

[3] = tested on: IL-1β-induced corneal HA and LA; assay: Corneal micropocket assay, IL-1β pellet; details: IL-1β micropellet
Experimental: as §5, §6, §7, §8

[4] = 72 h after suture placement, n=3

COC(=O)CCC[C@H](O)[C@H](O)/C=C/C=C/C=C\C=C\[C@H](O)COc1ccc(F)cc1 [ATLa, 15-epi-16-(para-fluoro)-phenoxy-lipoxin A4 methyl ester]
increase in TNF-α expression (TNF-α; 24 h): significantly suppressed | increase in TNF-α expression (TNF-α; 72 h): not at 72 h | expression of IL-1α (IL-1α): not significantly altered | inhibition of neutrophils recruitment (inflamed corneas; 24 and 72 h, 100 ng subconjunctival at 0 and 48 h): ~30% | neutrophils (inflamed corneas; 24 h after suture placement, n=3): 53±1 cells/section | reduction in macrophage infiltration (inflamed corneas; 72 h, vs vehicle): 25-40% | macrophage (inflamed corneas; [4]): 46±5 cells/section | neutrophils (inflamed corneas; [4]): 34±5 cells/section | LA ([1]; day 7): no significant reduction | BV density ([1]; day 7, n=4): 5.9±0.4% | reduction in the increase of IL-1β expression levels (IL-1β): more than 50% | mRNA expression of VEGF-D (VEGF-D): not significantly altered | mRNA expression of VEGFR-3 (VEGFR-3): not significantly altered | mRNA expression of VEGF-C (VEGF-C): lower mRNA expressions | IL-1 beta in corneas (mouse IL-1 beta; 72 h, treated at 0 h and 48 h, n=4): 21.3 ± 0.8 pg/mL | decrease in IL-1β protein level (mouse IL-1 beta; vs vehicle-treated group): 70% | mRNA expression of VEGFR-2 (VEGFR-2): lower mRNA expressions | growth of corneal neovessels, slit lamp biomicroscopy ([2]; 2-week time course): significant suppression of the angiogenic response | density of lymphatic vessels ([2]; day 14, vs vehicle): not observed | BV density ([2]; day 14 after suture placement, n=6): 8.26±0.63% | mRNA expression of VEGF-A (VEGF-A): lower mRNA expressions | LA ([3]; day 7): no significant reduction | BV density ([3]; day 7, n=4): 16.1±3.0%
